Experimental data published in patent publication US12304890B2, “R-type pyridyloxycarboxylic acid, salt and ester derivative thereof, and preparation method therefor, and herbicidal composition and application thereof” (Qingdao Kingagroot Chemical Compound Co., Ltd., priority 2018, dated 2025).

Experiments:
Type in all cases: in vivo
[1] = tested on: Echinochloa crusgalli; assay: Post-emergence test experiment, Echinochloa crusgalli; conditions: for Echinochloa crusgalli, activity level (growth inhibition rate): 200 g a.i./ha, 3 weeks, weed resistant to ALS inhibitor and ACCe herbicides; for Activity level (growth inhibition rate), Echinochloa crusgalli: 1000 g a.i./ha, 3 weeks in greenhouse, fresh weight inhibition
Outline: (§1)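 Read-out is fresh weight inhibition rate, taken 3 weeks after spraying. Treatment was applied to plants at the 2-3 leaf stage, grown from seed under 0.5-2 cm soil in greenhouse pots. Spray solution contained acetone, tween-80 and methyl oleate emulsible concentrate at 1.5 liters per hectare.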

[2] = tested on: Digitaria sanguinalis; assay: Post-emergence test experiment, Digitaria sanguinalis; conditions: for Digitaria sanguinalis, activity level (growth inhibition rate): 200 g a.i./ha, 3 weeks, weed resistant to cyhalofop-butyl; for Activity level (growth inhibition rate), Digitaria sanguinalis: 1000 g a.i./ha, 3 weeks in greenhouse, fresh weight inhibition
Outline: as §1

[3] = tested on: Semen Euphorbiae Lathyridis; assay: Post-emergence test experiment, Semen Euphorbiae Lathyridis; conditions: 200 g a.i./ha, 3 weeks, weed resistant to cyhalofop-butyl
Experimental: (§2) The above described growth inhibition rate is fresh weight inhibition rate.
(§3) Post-emergence test experiment: Monocotyledonous and dicotyledonous weed seeds and main crop seeds (i. e. wheat, corn, rice, soybean, cotton, oilseed, millet and sorghum.) were put into a plastic pot loaded with soil. Then covered with 0.5-2 cm soil, the seeds were allowed to grow in good greenhouse environment. The test plants were treated at 2-3 leaf stage 2 weeks after sowing. The test compounds of the invention were dissolved with acetone respectively, then added with tween-80, and using 1.5 liters per hectare of an emulsible concentrate of methyl oleate as a synergist, and diluted by certain amount of water to certain concentration. The solution was sprayed to the plants with a sprayer. Then the plants were cultured for 3 weeks in the greenhouse, and the experiment result of weed controlling effect was listed in tables 4-5.

[4] = tested on: rice; assay: Post-emergence test experiment, rice (crop selectivity); conditions: 200 g a.i./ha, 3 weeks
Experimental: as §2, §3

[5] = tested on: Monocotyledonous and dicotyledonous weed seeds and main crop seeds; assay: Post-emergence test experiment, other weeds and crops (Table 4, 1000 g a.i./ha); conditions: 3 weeks in greenhouse, fresh weight inhibition
Outline: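 Weed and crop seeds (wheat, corn, rice, soybean, cotton, oilseed, millet, sorghum) sown in soil pots in a greenhouse and sprayed at 2-3 leaf stage, 2 weeks after sowing. Compound in acetone/tween-80 with methyl oleate concentrate (1.5 L/ha) as synergist. Effect recorded as fresh-weight growth inhibition rate.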

SMILES | Echinochloa crusgalli, activity level (growth inhibition rate) [1] | Activity level (growth inhibition rate), Echinochloa crusgalli [1] | Digitaria sanguinalis, activity level (growth inhibition rate) [2] | Activity level (growth inhibition rate), Digitaria sanguinalis [2] | Semen Euphorbiae Lathyridis, activity level (growth inhibition rate) [3] | rice, activity level (growth inhibition rate) [4] | Activity level (growth inhibition rate), Abutilon theophrasti Medic. [5] | Activity level (growth inhibition rate), Galium aparine [5] | Activity level (growth inhibition rate), Monochoria Vaginalis [5]
CCSC(=O)[C@@H](C)Oc1nc(F)c(Cl)c(N)c1Cl [Compound 2-72] | 5 (Level 5: the growth inhibition rate is greater than 85%) | 5 (Level 5: the growth inhibition rate is greater than 85%) | 5 (Level 5: the growth inhibition rate is greater than 85%) | 5 (Level 5: the growth inhibition rate is greater than 85%) | 5 (Level 5: the growth inhibition rate is greater than 85%) | 0 (Level 0: the growth inhibition rate is less than 5%) | 5 (Level 5: the growth inhibition rate is greater than 85%) | 5 (Level 5: the growth inhibition rate is greater than 85%) | 5 (Level 5: the growth inhibition rate is greater than 85%)
CCCCCSC(=O)[C@@H](C)Oc1nc(F)c(Cl)c(N)c1Cl [Compound 2-86] | 5 (Level 5: the growth inhibition rate is greater than 85%) | 5 (Level 5: the growth inhibition rate is greater than 85%) | 5 (Level 5: the growth inhibition rate is greater than 85%) | 5 (Level 5: the growth inhibition rate is greater than 85%) | 5 (Level 5: the growth inhibition rate is greater than 85%) | 0 (Level 0: the growth inhibition rate is less than 5%) | 5 (Level 5: the growth inhibition rate is greater than 85%) | 5 (Level 5: the growth inhibition rate is greater than 85%) | 5 (Level 5: the growth inhibition rate is greater than 85%)
CCCC(C)COC(=O)[C@@H](C)Oc1nc(F)c(Cl)c(N)c1Cl (stereo partly drawn) [Compound 2-103] | 5 (Level 5: the growth inhibition rate is greater than 85%) | 5 (Level 5: the growth inhibition rate is greater than 85%) | 5 (Level 5: the growth inhibition rate is greater than 85%) | 5 (Level 5: the growth inhibition rate is greater than 85%) | 5 (Level 5: the growth inhibition rate is greater than 85%) | 0 (Level 0: the growth inhibition rate is less than 5%) | 5 (Level 5: the growth inhibition rate is greater than 85%) | 5 (Level 5: the growth inhibition rate is greater than 85%) | 5 (Level 5: the growth inhibition rate is greater than 85%)
CCCCC(C)OC(=O)[C@@H](C)Oc1nc(F)c(Cl)c(N)c1Cl (stereo partly drawn) [Compound 2-113] | 5 (Level 5: the growth inhibition rate is greater than 85%) | 5 (Level 5: the growth inhibition rate is greater than 85%) | 5 (Level 5: the growth inhibition rate is greater than 85%) | 5 (Level 5: the growth inhibition rate is greater than 85%) | 5 (Level 5: the growth inhibition rate is greater than 85%) | 0 (Level 0: the growth inhibition rate is less than 5%) | 5 (Level 5: the growth inhibition rate is greater than 85%) | 5 (Level 5: the growth inhibition rate is greater than 85%) | 5 (Level 5: the growth inhibition rate is greater than 85%)
CCCCCCCOC(=O)[C@@H](C)Oc1nc(F)c(Cl)c(N)c1Cl [Compound 2-121] | 5 (Level 5: the growth inhibition rate is greater than 85%) | 5 (Level 5: the growth inhibition rate is greater than 85%) | 5 (Level 5: the growth inhibition rate is greater than 85%) | 5 (Level 5: the growth inhibition rate is greater than 85%) | 5 (Level 5: the growth inhibition rate is greater than 85%) | 0 (Level 0: the growth inhibition rate is less than 5%) | 5 (Level 5: the growth inhibition rate is greater than 85%) | 5 (Level 5: the growth inhibition rate is greater than 85%) | 5 (Level 5: the growth inhibition rate is greater than 85%)
CCCCCCCCCCOC(=O)[C@@H](C)Oc1nc(F)c(Cl)c(N)c1Cl [Compound 2-195] | 4 (Level 4: the growth inhibition rate is equal to or greater than 60% and less than 85%) | 5 (Level 5: the growth inhibition rate is greater than 85%) | 5 (Level 5: the growth inhibition rate is greater than 85%) | 5 (Level 5: the growth inhibition rate is greater than 85%) | 5 (Level 5: the growth inhibition rate is greater than 85%) | 0 (Level 0: the growth inhibition rate is less than 5%) | 5 (Level 5: the growth inhibition rate is greater than 85%) | 5 (Level 5: the growth inhibition rate is greater than 85%) | 5 (Level 5: the growth inhibition rate is greater than 85%)
CCCCCCCCCCCOC(=O)[C@@H](C)Oc1nc(F)c(Cl)c(N)c1Cl [Compound 2-215] | 4 (Level 4: the growth inhibition rate is equal to or greater than 60% and less than 85%) | 5 (Level 5: the growth inhibition rate is greater than 85%) | 5 (Level 5: the growth inhibition rate is greater than 85%) | 5 (Level 5: the growth inhibition rate is greater than 85%) | 5 (Level 5: the growth inhibition rate is greater than 85%) | 0 (Level 0: the growth inhibition rate is less than 5%) | 5 (Level 5: the growth inhibition rate is greater than 85%) | 5 (Level 5: the growth inhibition rate is greater than 85%) | 5 (Level 5: the growth inhibition rate is greater than 85%)
CCCCCCCCCCCCOC(=O)[C@@H](C)Oc1nc(F)c(Cl)c(N)c1Cl [Compound 2-235] | 5 (Level 5: the growth inhibition rate is greater than 85%) | 5 (Level 5: the growth inhibition rate is greater than 85%) | 5 (Level 5: the growth inhibition rate is greater than 85%) | 5 (Level 5: the growth inhibition rate is greater than 85%) | 5 (Level 5: the growth inhibition rate is greater than 85%) | 0 (Level 0: the growth inhibition rate is less than 5%) | 5 (Level 5: the growth inhibition rate is greater than 85%) | 5 (Level 5: the growth inhibition rate is greater than 85%) | 5 (Level 5: the growth inhibition rate is greater than 85%)
CCCCOCCOC(=O)C(C)Oc1nc(F)c(Cl)c(N)c1Cl (stereo not drawn) [Compound 2-271] | 5 (Level 5: the growth inhibition rate is greater than 85%) | 5 (Level 5: the growth inhibition rate is greater than 85%) | 5 (Level 5: the growth inhibition rate is greater than 85%) | 5 (Level 5: the growth inhibition rate is greater than 85%) | 5 (Level 5: the growth inhibition rate is greater than 85%) | 0 (Level 0: the growth inhibition rate is less than 5%) | 5 (Level 5: the growth inhibition rate is greater than 85%) | 5 (Level 5: the growth inhibition rate is greater than 85%) | 5 (Level 5: the growth inhibition rate is greater than 85%)
